In patent publication US10864168B2, “Bioactive delivery vehicles” (The Regents of the University of California, priority 2014, dated 2020):
Blank lines part the entries; values can stand above or below the compound they belong to.

Columns and labels:
E. coli (BL21) = assay: Encapsulation efficiency into bacteria by vacuum infusion; assay type: physicochemical; settings: vacuum infused, 35% ethanol
inactivated yeast = assay: Encapsulation of bioactives into inactivated yeast cells (conventional diffusion, vacuum infusion, pressure); assay type: physicochemical, Saccharomyces cerevisiae
Source text: Prior to encapsulation of bioactives, selected strains of both yeast and algal cells are inactivated with a chemical treatment. Chemical inactivation of yeast or algal cells stops the metabolic processes while preserving the structure and chemical composition of the cells. […] The concentration of ethanol is selected based on the results of the previous study. Briefly, 1 gm of yeast or algal cells pellet is suspended in the 35% ethanolic solution of the selected bioactive compound. […] We have determined the % ethanol to achieve sufficient encapsulation of the selected encapsulated bioactive compounds using both the vacuum and high pressure assisted encapsulation process. Yeast or algal cell samples suspended in the ethanolic solution with the bioactive compound are sealed in boilable vacuum bags (Prime Source) at 99% vacuum (Ultravac 250, Koch Equipment LLC). […] The sealed samples are covered with aluminum foil to prevent any photo-degradation of the bioactives and incubated at room temperature (25° C.) for 10 minutes. Samples are emptied into 50 mL centrifuge tubes, centrifuged at 2200 rpm for 10 minutes to pellet the cells and the pelleted cells are washed twice with ethanolic solution (35%) and then five times with excess water to remove unencapsulated bioactives. […] Samples are emptied into 50 mL centrifuge tubes, centrifuged to pellet the cells (2200 rpm for 10 minutes) and the pelleted cells are washed twice with ethanolic solution (35%) and then five times with excess water to remove unencapsulated bioactives. Briefly, yeast or algal samples in a 35% ethanolic solution of the selected bioactive compound are covered with a single layer of aluminum foil to prevent photolysis. Samples are then placed into a rotary incubator at 50° C. and 200 rpm for 24 hours. After removal from the incubator, cells are removed by centrifugation at 2000 rpm for 10 minutes. The supernatant is decanted to isolate the pelleted cells and the pelleted cells are washed as described above to remove unencapsulated bioactives. Cells are sonicated to disrupt the cellular structure. A methanol extraction is utilized to extract the encapsulated bioactives from the disrupted yeast or algal cells. 0.05 g of cells (wet basis) with encapsulated bioactives are sonicated to disrupt cellular structure and subsequently incubated with 1 mL methanol. Samples are then briefly vortexed and centrifuged at 14,000 rpm for 10 minutes. The concentration of bioactive compound dissolved in the organic phase is measured using UV-vis spectrophotometer. […] Measuring loading of these bioactive compounds in various emulsions and nanoparticles has been described. The encapsulation efficiency is determined as follows: [formula] where CE is the mass of extracted bioactive from the cells after encapsulation and CT is the amount of bioactive initially added to the cells. We have developed an innovative bioencapsulation process that provides rapid and efficient infusion of bioactives in isolated cells and lipid bodies. In this process, yeast or algal cells incubated in a solution containing bioactive were subjected to a vacuum (97% vacuum) or mild-high hydrostatic pressure (35-100 MPa) for ˜5-10 minutes. […] The results of these measurements were compared with the conventional process used for encapsulation of bioactive compounds in yeast cells.

L. casei (S1) = assay: Encapsulation efficiency into bacteria by vacuum infusion; assay type: physicochemical, Lactobacillus casei; settings: vacuum infused, 35% ethanol
porcine skin = assay: Nile Red release from yeast encapsulation system into porcine skin; settings: yeast microcapsules loaded with Nile Red; room temperature, 12 hours
Method: The Nile Red fluorescence signal contrast of porcine skin incubated with yeast encapsulation system and non-incubated porcine skin was evaluated. Yeast microcapsules were loaded with Nile Red dye and spread on porcine skin surface. After incubation at room temperature for 12 hours, fluorescence images were taken on the 20 μm-thick slice of tissue cross-section. The results are depicted in FIG. 17. […] This encapsulation system thus provides an option for convenient, pain-free and efficient compound delivery, which can be self-administered and operate as an alternative to oral dosing or injections.

[1] = Storage stability of encapsulated retinol at room temperature, exposure to atmospheric oxygen; assay type: physicochemical; settings: cell-based encapsulants / lipid membrane microcapsules
Source text: FIG. 10 illustrates stability of retinol encapsulated yeast cells as compared to retinol in emulsion and nanoparticles at room temperature. Stability of all-trans retinol encapsulated in casein stabilized emulsion, zein nanoparticles and yeast cells. The percent recovery of retinol in model systems after exposure to atmospheric oxygen is shown. Yeast cells provided the most stability to retinol, nearly 100% up to 5 days, while zein and casein systems have <10% after 4 days.
Retinol was selected as a model bioactive as it is highly susceptible to oxidative degradation at room temperature.

[2] = Thermal stability of retinol, cell encapsulated versus emulsions; assay type: physicochemical; settings: vacuum and/or HPP infusion methods, compared to emulsions
Method: Comparative percent recovery of retinol in emulsions and yeast after processing at 70° C. for 30 minutes. The retinol was extracted using methanol and the absorbance was measured at 325 nm.

[3] = 100 mM PBS, pH = 6.5, Conventional Diffusion, saturated solution, 35% v/v ethanol
[4] = 100 mM PBS, pH = 6.5, HPP (200 MPa), saturated solution, 35% v/v ethanol
[5] = 100 mM PBS, pH = 6.5, Vacuum Infusion, saturated solution, 35% v/v ethanol
[6] = 2% Tween 20 in 100 mM Tris Buffer, pH = 8, Conventional Diffusion, saturated solution, 35% v/v ethanol
[7] = 2% Tween 20 in 100 mM Tris Buffer, pH = 8, HPP (200 MPa), saturated solution, 35% v/v ethanol
[8] = 2% Tween 20 in 100 mM Tris Buffer, pH = 8, Vacuum Infusion, saturated solution, 35% v/v ethanol
[9] = Conventional Diffusion, Single Loading
[10] = Vacuum, Dual Loading (curcumin and fisetin added together)
[11] = commercial yeast, 1 vacuum cycle, 35% ethanol
[12] = commercial yeast, 3 cycles of 99% vacuum, 5 min incubation between, no additional fisetin added
[13] = inactivated yeast, Conventional Methods, 24 hours, 50° C.
[14] = inactivated yeast, Mild Pressure (35 Mpa), 10 minutes
[15] = inactivated yeast, Vacuum (5 minutes)

- Encapsulation Efficiency (E. coli (BL21)): 30.8%
- Mass of Encapsulated Bioactive in Bacteria (E. coli (BL21)): 1.619 mg/g
- Encapsulation Efficiency (inactivated yeast; [3]): 42.6%
- Mass of Encapsulated Bioactive in Yeast (inactivated yeast; [3]): 1.11 mg/g
- Encapsulation Efficiency (inactivated yeast; [4]): 99.3%
- Mass of Encapsulated Bioactive in Yeast (inactivated yeast; [4]): 2.59 mg/g
- Encapsulation Efficiency (inactivated yeast; [5]): 105.3%
- Mass of Encapsulated Bioactive in Yeast (inactivated yeast; [5]): 2.75 mg/g
- Encapsulation Efficiency (inactivated yeast; [6]): 58.7%
- Mass of Encapsulated Bioactive in Yeast (inactivated yeast; [6]): 2.31 mg/g
- Encapsulation Efficiency (inactivated yeast; [7]): 54.8%
- Mass of Encapsulated Bioactive in Yeast (inactivated yeast; [7]): 2.16 mg/g
- Encapsulation Efficiency (inactivated yeast; [8]): 80.7%
- Mass of Encapsulated Bioactive in Yeast (inactivated yeast; [8]): 3.18 mg/g
- Encapsulation Efficiency (inactivated yeast; [9]): 12.2%
- Mass of Encapsulated Bioactive in Yeast (inactivated yeast; [9]): 0.061 mg/g
- Encapsulation Efficiency (inactivated yeast; [10]): 96.0%
- Mass of Encapsulated Bioactive in Yeast (inactivated yeast; [10]): 0.480 mg/g
- Encapsulated Efficiency (inactivated yeast; [11]): 69.5%
- Mass of Encapsulated Bioactive in Yeast (inactivated yeast; [11]): 3.65 mg/g
- Encapsulated Efficiency (inactivated yeast; [12]): 76.4%
- Mass of Encapsulated Bioactive in Yeast (inactivated yeast; [12]): 4.01 mg/g
- encapsulation efficiency (percent ratio of encapsulated bioactive with respect to total bioactive in solution) (inactivated yeast; [13]): 11%
- encapsulation efficiency (percent ratio of encapsulated bioactive with respect to total bioactive in solution) (inactivated yeast; [14]): 68%
- encapsulation efficiency (percent ratio of encapsulated bioactive with respect to total bioactive in solution) (inactivated yeast; [15]): 64%
- encapsulation efficiency relative to conventional diffusion techniques (inactivated yeast; inactivated yeast, vacuum or HPP): 1.4-2.3 ×
- Encapsulation Efficiency (L. casei (S1)): 43.2%
- Mass of Encapsulated Bioactive in Bacteria (L. casei (S1)): 2.271 mg/g
Structure (SMILES): O=c1c(O)c(-c2ccc(O)c(O)c2)oc2cc(O)ccc12 [Fisetin, fisetin]

Structure (SMILES): CCN(CC)c1ccc2nc3c4ccccc4c(=O)cc-3oc2c1 [Nile Red]
- release and permeation into porcine skin (porcine skin): effectively released from yeast cells, further permeated crossing the stratum corneum and reached the dermis layer

- improvement of storage stability as compared to other encapsulation systems, including nanoparticles and emulsions [1]: at least 5 fold
- encapsulation efficiency (percent ratio of encapsulated bioactive with respect to total bioactive in solution) (inactivated yeast; [13]): 15%
- encapsulation efficiency (percent ratio of encapsulated bioactive with respect to total bioactive in solution) (inactivated yeast; [14]): 70%
- encapsulation efficiency (percent ratio of encapsulated bioactive with respect to total bioactive in solution) (inactivated yeast; [15]): 45%
- reduction of loss of retinol during thermal processing [2]: 25-30%
Structure (SMILES): CC1=C(/C=C/C(C)=C/C=C/C(C)=C/CO)C(C)(C)CCC1 [Retinol, retinol]
